Where “and” joins values, the source holds several entries; their conditions need not be identical. Equal entries are not always repeated. Bridges are numbered along the chain shown (N, C = ends). Where no end group is shown, it is not given here.
Legend:
Assay type in all cases: cell-based
[1] = system: mouse brain endothelial bEnd.3 cells; assay: Transendothelial electrical resistance (TEER) of mouse brain endothelial cell monolayer on Transwell inserts; details: for TEER change relative to control, Average / TEER change relative to control: bEnd.3
Method: (§1) To determine the effect of NX218 on transendothelial electrical resistance (TEER) of mouse brain endothelial cells, cells were grown on a semi-permeable membrane inserted in culture wells in presence or absence of NX218 and the TEER was recorded using electrodes placed on each side of the membrane and a resistance meter.
Mouse brain endothelial cells (bEnd.3, American Type Culture Collection) were cultured in Dulbecco's modified Eagle's Medium (DMEM) supplemented with 10% fetal bovine serum (FBS) and 2 mM sodium pyruvate in a 5% CO2 incubator at 37° C.
bEnd.3 cells were grown on 6.5-mm-diameter, 0.4-μm-pore, polyester membrane HTS Transwell inserts (5×10^4 cells per well containing 200 μL and 800 μL of culture medium in the apical and basolateral compartments respectively). Three days after seeding, cells were treated with vehicle or NX218 (1, 10 and 100 μM) for 1, 2 or 3 days. TEER values were measured using an EVOM resistance meter fitted with “chopstick” electrodes. One electrode was placed in the apical chamber and another one in the basolateral chamber. Before measurements, chambers were replaced with fresh medium.

[2] = system: mouse brain endothelial bEnd.3 cells; assay: Permeability of mouse brain endothelial cell monolayer to FITC-40 kDa Dextran; details: for Permeability to FITC-40 kDa Dextran (endothelial permeability coefficient Pe): individual replicates N1-N3
Method: To determine the effect of NX218 on the permeability of mouse brain endothelial cells to a 40-kDa FITC Dextran, cells were grown on a semi-permeable membrane inserted in culture wells in presence or absence of NX218. Then, the FITC Dextran was placed on the apical chamber (containing the cells) and its levels measured (based on its fluorescence) one hour later in the basolateral chamber.
Mouse brain endothelial cells (bEnd.3, American Type Culture Collection) were cultured in DMEM supplemented with 10% FBS and 2 mM sodium pyruvate in a 5% CO2 incubator at 37° C.
bEnd.3 cells were grown to confluence on 1% fibronectin-coated Corning HTS 24-well Transwell polyester inserts with a pore size of 0.4 μm (5×10^4 cells per well containing 200 μL and 800 μL of culture medium in the apical and basolateral compartments respectively) and treated with vehicle or NX218 (1, 10 and 100 μM) for 1, 2 or 3 days. Two hundred (200) μL of 1 mg/mL of a 40-kDa FITC Dextran in DMEM supplemented with 10% FBS and 2 mM sodium pyruvate were added to the apical chamber of each well, and the cells were incubated at 37° C. Sampling aliquots were taken from the basolateral chamber and replaced with fresh medium every 15 min for 1 h and then transferred to 96-well plates. FITC-Dextran fluorescence was determined using a spectrofluorometer at an excitation wavelength of 485 nm and an emission wavelength of 520 nm. Relative fluorescence units were converted to values of nanograms per milliliter, using FITC-Dextran standard curves, and was corrected for background fluorescence and serial dilutions over the course of the experiment. The data are expressed as the endothelial permeability coefficient (Pe) in cm/min.

[3] = system: primary human umbilical vein endothelial cells (HUVEC); assay: Transendothelial electrical resistance (TEER) of primary human umbilical vein endothelial cell monolayer; details: for TEER change relative to control, Average: average of N1-N9, control = 100; for TEER change relative to control: control average = 100, individual replicates N1-N9
Method: as §1, with “primary human umbilical vein” for “mouse brain”, “cells (HUVEC),” for “cells,”
HUVEC (PromoCell, C-12208) were cultured in EBM-2 basal media supplemented with bullet kit reagents (both from Lonza) in a 5% CO2 incubator at 37° C.
HUVEC were grown on 6.5-mm-diameter, 0.4-μm-pore, polyester membrane HTS Transwell inserts (5×10^4 cells per well containing 200 μL and 800 μL of culture medium in the apical and basolateral compartments respectively). Two days after seeding, cells were treated with vehicle or NX218 (1, 10 and 100 μM) for 1 or 3 days. TEER values were measured using an EVOM resistance meter fitted with “chopstick” electrodes. One electrode was placed in the apical chamber and another one in the basolateral chamber. Before measurements, chambers were replaced with fresh medium.

## W-S-G-W-S-S-C-S-R-S-C-G (WSGWSSCSRSCG; disulfide 7-11 (inferred)) [NX218]
[1]; 10 and 100 μM for 1, 2 or 3 days, compared with vehicle-treated monolayer
  Resistance (TEER), result in words: significantly increased in a dose dependent manner
[1]; FIG. 1, 1, 10, 100 μM for 24 h, 48 h or 72 h
  TEER: increases the transendothelial electrical resistance of mouse brain endothelial cell monolayer in a dose-dependent manner
[1]; NX218 1 μM, 24 hours, average of N1-N6, control = 1
  TEER change relative to control, Average: 1.095
[1]; NX218 1 μM, 24 hours, individual replicates N1-N6
  TEER change relative to control: 1.096 and 1.109 and 0.9761 and 1.051 and 1.197 and 1.139
[1]; NX218 1 μM, 48 hours, average of N1-N9, control = 1
  TEER change relative to control, Average: 1.089
[1]; NX218 1 μM, 48 hours, individual replicates N1-N9
  TEER change relative to control: 1.149 and 1.219 and 1.194 and 0.9888 and 1.006 and 1.056 and 0.9841 and 1.196 and 1.011
[1]; NX218 1 μM, 72 hours, average of N1-N9, control = 1
  TEER change relative to control, Average: 0.9718
[1]; NX218 1 μM, 72 hours, individual replicates N1-N9
  TEER change relative to control: 0.9966 and 1.022 and 1.007 and 1.003 and 0.9525 and 0.9474 and 0.9315 and 0.9406 and 0.9452
[1]; NX218 10 μM, 24 hours, average of N1-N6, control = 1
  TEER change relative to control, Average: 1.128
[1]; NX218 10 μM, 24 hours, individual replicates N1-N6
  TEER change relative to control: 1.027 and 1.068 and 1.072 and 1.178 and 1.212 (2×)
[1]; NX218 10 μM, 48 hours, average of N1-N9, control = 1
  TEER change relative to control, Average: 1.203
[1]; NX218 10 μM, 48 hours, individual replicates N1-N9
  TEER change relative to control: 1.219 (2×) and 1.334 and 1.016 (2×) and 1.053 and 1.28 and 1.381 and 1.312
[1]; NX218 10 μM, 72 hours, average of N1-N9, control = 1
  TEER change relative to control, Average: 1.196
[1]; NX218 10 μM, 72 hours, individual replicates N1-N9
  TEER change relative to control: 1.27 and 1.255 and 1.239 and 1.187 (3×) and 1.151 and 1.146 (2×)
[1]; NX218 100 μM, 24 hours, average of N1-N6, control = 1
  TEER change relative to control, Average: 1.307
[1]; NX218 100 μM, 24 hours, individual replicates N1-N6
  TEER change relative to control: 1.218 and 1.283 and 1.142 and 1.454 and 1.373 and 1.37
[1]; NX218 100 μM, 48 hours, average of N1-N9, control = 1
  TEER change relative to control, Average: 1.461
[1]; NX218 100 μM, 48 hours, individual replicates N1-N9
  TEER change relative to control: 1.547 and 1.404 and 1.498 and 1.223 and 1.284 and 1.173 and 1.725 and 1.72 and 1.571
[1]; NX218 100 μM, 72 hours, average of N1-N9, control = 1
  TEER change relative to control, Average: 1.446
[1]; NX218 100 μM, 72 hours, individual replicates N1-N9
  TEER change relative to control: 1.467 and 1.553 and 1.624 and 1.436 and 1.457 and 1.584 and 1.237 and 1.306 and 1.347
[2]; NX218 1 μM, 24 hours, average of N1-N3, control 0.066
  Permeability to FITC-40 kDa Dextran (Pe), Average: 1064 ×10⁻⁶ cm/s
[2]; NX218 1 μM, 24 hours
  Permeability to FITC-40 kDa Dextran (endothelial permeability coefficient Pe): 1020 ×10⁻⁶ cm/s and 971 ×10⁻⁶ cm/s and 1200 ×10⁻⁶ cm/s
[2]; NX218 1 μM, 48 hours, average of N1-N3, control 0.05616
  Permeability to FITC-40 kDa Dextran (Pe), Average: 896.3 ×10⁻⁶ cm/s
[2]; NX218 1 μM, 48 hours
  Permeability to FITC-40 kDa Dextran (endothelial permeability coefficient Pe): 963 ×10⁻⁶ cm/s and 781.5 ×10⁻⁶ cm/s and 944.3 ×10⁻⁶ cm/s
[2]; NX218 1 μM, 72 hours, average of N1-N3, control 0.0532667
  Permeability to FITC-40 kDa Dextran (Pe), Average: 906.3 ×10⁻⁶ cm/s
[2]; NX218 1 μM, 72 hours
  Permeability to FITC-40 kDa Dextran (endothelial permeability coefficient Pe): 942 ×10⁻⁶ cm/s and 942.2 ×10⁻⁶ cm/s and 834.8 ×10⁻⁶ cm/s
[2]; NX218 10 μM, 24 hours, average of N1-N3, control 0.066
  Permeability to FITC-40 kDa Dextran (Pe), Average: 977.3 ×10⁻⁶ cm/s
[2]; NX218 10 μM, 24 hours
  Permeability to FITC-40 kDa Dextran (endothelial permeability coefficient Pe): 892 ×10⁻⁶ cm/s and 1030 ×10⁻⁶ cm/s and 1010 ×10⁻⁶ cm/s
[2]; NX218 10 μM, 48 hours, average of N1-N3, control 0.05616
  Permeability to FITC-40 kDa Dextran (Pe), Average: 841.3 ×10⁻⁶ cm/s
[2]; NX218 10 μM, 48 hours
  Permeability to FITC-40 kDa Dextran (endothelial permeability coefficient Pe): 909 ×10⁻⁶ cm/s and 760 ×10⁻⁶ cm/s and 855 ×10⁻⁶ cm/s
[2]; NX218 10 μM, 72 hours, average of N1-N3, control 0.0532667
  Permeability to FITC-40 kDa Dextran (Pe), Average: 747.7 ×10⁻⁶ cm/s
[2]; NX218 10 μM, 72 hours
  Permeability to FITC-40 kDa Dextran (endothelial permeability coefficient Pe): 748.2 ×10⁻⁶ cm/s and 783 ×10⁻⁶ cm/s and 712 ×10⁻⁶ cm/s
[2]; NX218 100 μM, 24 hours, average of N1-N3, control 0.066
  Permeability to FITC-40 kDa Dextran (Pe), Average: 942 ×10⁻⁶ cm/s
[2]; NX218 100 μM, 24 hours
  Permeability to FITC-40 kDa Dextran (endothelial permeability coefficient Pe): 907 ×10⁻⁶ cm/s and 1012 ×10⁻⁶ cm/s and 906.3 ×10⁻⁶ cm/s
[2]; NX218 100 μM, 48 hours, average of N1-N3, control 0.05616
  Permeability to FITC-40 kDa Dextran (Pe), Average: 702 ×10⁻⁶ cm/s
[2]; NX218 100 μM, 48 hours
  Permeability to FITC-40 kDa Dextran (endothelial permeability coefficient Pe): 627 ×10⁻⁶ cm/s and 725 ×10⁻⁶ cm/s and 753 ×10⁻⁶ cm/s
[2]; NX218 100 μM, 72 hours, average of N1-N3, control 0.0532667
  Permeability to FITC-40 kDa Dextran (Pe), Average: 782 ×10⁻⁶ cm/s
[2]; NX218 100 μM, 72 hours
  Permeability to FITC-40 kDa Dextran (endothelial permeability coefficient Pe): 798 ×10⁻⁶ cm/s and 758.7 ×10⁻⁶ cm/s and 787.7 ×10⁻⁶ cm/s
[3]; NX218 1 μM, 24 hours
  TEER change relative to control, Average: 104
  TEER change relative to control: 101.3 (3×) and 95.36 (2×) and 89.4 and 119.2 (2×) and 113.2
[3]; NX218 1 μM, 72 hours
  TEER change relative to control, Average: 101.1
  TEER change relative to control: 113.1 (2×) and 97.71 and 87.43 and 82.29 and 92.57 and 123.4 and 128.6 and 72
[3]; NX218 10 μM, 24 hours
  TEER change relative to control, Average: 119.2
  TEER change relative to control: 101.3 (2×) and 119.2 and 149 (2×) and 143 and 89.4 and 113.2 and 107.3
[3]; NX218 10 μM, 72 hours
  TEER change relative to control, Average: 109.7
  TEER change relative to control: 97.71 and 118.3 and 123.4 and 87.43 and 102.9 and 108 (2×) and 128.6 and 113.1
[3]; NX218 100 μM, 24 hours
  TEER change relative to control, Average: 158.9
  TEER change relative to control: 137.1 and 149 and 143 (2×) and 172.8 and 184.8 (2×) and 155 and 160.9
[3]; NX218 100 μM, 72 hours
  TEER change relative to control, Average: 131.4
  TEER change relative to control: 144 (2×) and 138.9 and 108 (2×) and 123.4 and 133.7 and 154.3 and 128.6
[3]; NX218 at 100 μM for 1 or 3 days, compared with vehicle
  Resistance (TEER), result in words: significantly increased in a dose dependent manner

Source: patent US20250152660A1, “SCO-spondin-derived polypeptides for treating biological barriers dysfunction” (AXOLTIS PHARMA, priority 2021, published 2025)
